{"source": "patent US20240124610A1", "about": "“METHODS FOR TREATING HER2-NEGATIVE OR HER2-LOW CANCER” (Washington University, priority 2022, published 2024)", "key": {"[1]": {"tested_on": "ZR751 cells overexpressing BCAR4 full length or gene fusions", "test": "Cell viability under lapatinib treatment (FIG. 24)", "type": "cell-based", "details": "ZR751 cells overexpressing BCAR4 full length or gene fusions vs control cells without BCAR4, increased lapatinib"}, "[2]": {"tested_on": "HER2/HER3 signaling in ZR-75-1 cells", "test": "Western blot of HER3/AKT signaling in lapatinib-treated cells (FIG. 29D)", "type": "cell-based", "parameters": "dose or concentration left out as unconfirmed", "details": "ZR-75-1 cells expressing full length BCAR4 or gene fusions", "procedure": "Antibodies against FLAG (2368S; RRID:AB_2217020, 1:1000; Cell Signaling Technology), actin (3700S; RRID:AB_2242334, 1:10,000; Cell Signaling Technology), Goat anti-mouse or anti-rabbit peroxidase-conjugated secondary antibodies (Thermo Fisher Scientific) were used for experiments. Protein samples were prepared with ice-cold RIPA lysis buffer (25 mmol/L Tris pH7.5, 1% NP40, 0.1% SDS, 150 mmol/L NaCl, 0.5% sodium deoxycholate, and 1× Halt Protease Inhibitor Cocktail; Thermo Fisher Scientific). Lysate was subjected to a short sonication and then clarified by centrifugation at maximum speed, 4° C. for 10 minutes. Protein concentration was determined with the DC Protein Assay (BioRad). Samples were diluted in loading buffer, boiled, and equal protein concentrations (20-30 mg) loaded and resolved by SDS-polyacrylamide gel electrophoresis in 12% or 4% to 12% Bolt Bis-Tris precast gels (Invitrogen). Gels were transferred at 60° C. for 1 hour to a nitrocellulose membrane (BioRad). Proteins were detected with specific antibodies and visualized and quantified on the ChemDoc MP Imaging System (BioRad) using secondary antibodies and Clarity Western ECL Substrate (Thermo Fisher Scientific)."}, "BCAR4-expressing cells": {"tested_on": "BCAR4-expressing cells", "test": "Cell growth under lapatinib treatment (FIG. 42)", "type": "cell-based", "details": "BCAR4-expressing cells treated with lapatinib", "from_the_text": "In breast cancer HER3 preferentially binds to HER2 to form a heterodimer."}, "[3]": {"tested_on": "patients expressing BCAR4", "details": "letrozole (AI treatment); public data GSE41994; FIG. 39; cited from earlier work"}, "[4]": {"tested_on": "MCF7 (ER+/HER2-negative) cells expressing full length BCAR4 or LITAF-BCAR4 gene fusion", "test": "Tamoxifen treatment of BCAR4-overexpressing breast cancer cells (FIG. 37)", "type": "cell-based", "details": "in vitro", "from_the_text": "FIG. 37 is a graph showing BCAR4 gene fusion-expressing cells are resistance to Tamoxifen treatment in breast cancer in accordance with the present disclosure. MCF7 (ER+/HER2-negative) overexpressing cell lines expressing full length BCAR4 (B4) or LITAF-BCAR4 gene fusion (LB) were used.\nBCAR4 gene fusion-expressing cells are resistant to Tamoxifen treatment in breast cancer (see e.g., FIG. 37). It is known that full length BCAR4 is resistant to tamoxifen therapy, but no one has shown that BCAR4 gene fusions cause resistance. BCAR4-fusions express only the 4th exon of BCAR4 gene."}, "breast cancer patients": {"tested_on": "breast cancer patients", "test": "Survival analysis of tamoxifen-treated breast cancer patients by BCAR4 expression", "type": "in vivo, human", "from_the_text": "FIG. 25 is a survival curve showing BCAR4-positive patients (blue) have worse outcome when treated with tamoxifen in accordance with the present disclosure.\nBCAR4+ is categorized as the top 20% and BCAR4− as the bottom 80%."}}, "note": "Entries after “also recorded” stand apart in the source; their conditions may differ.", "data": [{"smiles": "CS(=O)(=O)CCNCc1ccc(-c2ccc3ncnc(Nc4ccc(OCc5cccc(F)c5)c(Cl)c4)c3c2)o1", "note": "[lapatinib]", "values": [{"measurement": "cell viability", "setting": "[1]", "value": "decreased cell viability"}, {"measurement": "phosphorylation of HER3 and downstream activation of AKT", "setting": "[2]", "value": "attenuated these changes; also recorded: inhibited"}, {"measurement": "phosphorylation of HER3 and downstream activation of AKT", "setting": "[2]; listed as Lapatinib", "value": "lose HER3 activation"}, {"measurement": "cell growth", "setting": "BCAR4-expressing cells", "value": "decreased growth"}]}, {"smiles": "N#Cc1ccc(C(c2ccc(C#N)cc2)n2cncn2)cc1", "note": "[letrozole]", "values": [{"measurement": "Progression Free Survival of top 25% of patients expressing BCAR4", "setting": "[3]", "value": "worse Progression Free Survival"}]}, {"smiles": "CC/C(=C(\\c1ccccc1)c1ccc(OCCN(C)C)cc1)c1ccccc1", "note": "[tamoxifen]", "values": [{"measurement": "response to Tamoxifen treatment", "setting": "[4]", "value": "resistant"}, {"measurement": "outcome of BCAR4-high patients", "setting": "breast cancer patients; tamoxifen only treatment, TCGA cohort (n=186), FIG. 35", "value": "worse outcomes"}, {"measurement": "distant metastasis free survival of BCAR4-high patients", "setting": "breast cancer patients; tamoxifen treatment, GSE6532 cohort, FIG. 36", "value": "worse distant metastasis free survival"}, {"measurement": "outcome of early stage BCAR4-positive vs BCAR4-negative patients", "setting": "breast cancer patients; tamoxifen, microarray data of early-stage breast cancer patients, FIG. 25", "value": "poor outcome"}]}]}
